molecular target: T1, GBA2 (Homo sapiens, UniProt Q9HCG7); assay: Determination of IC50 values for inhibition of GBA2 in cell lysate; assay type: biochemical; parameters: host or cells: HEK293T (lentiviral transduction, puromycin selection); used as cellular homogenate; conditions: cellular homogenate of HEK293T cells overexpressing human GBA2, 250 μM 4-methylumbelliferone-β-D glucopyranoside, pH 5.5, 37° C., GCase inhibitor present; read-out: GBA2 IC50
T1 sequence (Q9HCG7 1-927): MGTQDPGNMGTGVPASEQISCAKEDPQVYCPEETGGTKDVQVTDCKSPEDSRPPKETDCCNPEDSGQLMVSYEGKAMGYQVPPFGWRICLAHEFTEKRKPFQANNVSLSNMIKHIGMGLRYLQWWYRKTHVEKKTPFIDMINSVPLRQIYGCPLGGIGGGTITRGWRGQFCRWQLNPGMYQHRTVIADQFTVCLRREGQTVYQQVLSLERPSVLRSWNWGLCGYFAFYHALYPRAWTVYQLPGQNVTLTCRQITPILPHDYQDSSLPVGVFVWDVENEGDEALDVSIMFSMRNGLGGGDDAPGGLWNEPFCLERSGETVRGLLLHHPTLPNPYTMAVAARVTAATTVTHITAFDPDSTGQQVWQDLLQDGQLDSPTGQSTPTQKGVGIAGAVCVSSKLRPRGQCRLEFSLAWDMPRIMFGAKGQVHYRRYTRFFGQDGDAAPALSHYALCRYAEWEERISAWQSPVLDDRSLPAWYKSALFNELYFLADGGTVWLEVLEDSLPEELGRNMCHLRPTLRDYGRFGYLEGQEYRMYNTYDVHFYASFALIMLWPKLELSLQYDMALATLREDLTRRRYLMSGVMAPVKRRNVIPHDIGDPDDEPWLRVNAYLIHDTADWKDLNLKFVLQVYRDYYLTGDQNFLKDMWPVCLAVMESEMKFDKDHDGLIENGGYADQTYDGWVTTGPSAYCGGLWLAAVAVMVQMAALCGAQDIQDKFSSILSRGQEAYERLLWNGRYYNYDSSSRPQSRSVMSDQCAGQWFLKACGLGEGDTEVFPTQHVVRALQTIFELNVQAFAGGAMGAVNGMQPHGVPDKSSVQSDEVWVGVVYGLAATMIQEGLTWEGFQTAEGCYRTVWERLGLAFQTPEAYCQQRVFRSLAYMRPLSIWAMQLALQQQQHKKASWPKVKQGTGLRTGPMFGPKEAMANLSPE
From the text: Assay for Determination of IC50 Values for Inhibition of GBA2 in Cell Lysate
Stable GBA2-expressing HEK293T cells were generated as follows. The PCR-amplified human GBA2 (GBA2 nucleotide accession number BC011363) using the following primers: Sense 5′---CGCAAATGGGCGGTAGGCGTG (SEQ ID NO:2)---3′ and antisense 5′---TAGTCAGCCATGGGGCGGAGA (SEQ ID NO:3)---3′) was cloned into pLenti-GIII-CMV by ABM Inc. The correctness of the construct was verified by sequencing. Lentivirus particles containing GBA2 in the pLenti-GIII-CMV plasmid were prepared using a third Generation Virus Packaging Mix (ABM cat #LV053-G074) in HEK293T cells and supplied as a virus particle suspension. The virus suspension was used for infection of HEK293T cells. Cell populations stably expressing human GBA2 were selected using puromycin for several weeks as determined by activity assays and western blot.
Various concentrations of test compounds were prepared in DMSO and then diluted into buffer consisting of 100 mM citric acid, 200 mM disodium phosphate with 1% v/v C10E6, pH 5.5. Cellular homogenates (0.25 mg/mL) of the stable HEK293T-overexpressing GBA2 cell line were preincubated for 10 min on ice with an inhibitor of GCase (20 μM (6R,7R,8S)-8-ethyl-4-azaspiro[2.5]octane-6,7-diol). The reaction solution consisted of 20 μL of 750 μM 4-methylumbelliferone-β-D glucopyranoside in 5% DMSO in the same buffer, 20 μL of GBA2-cellular homogenate pre-treated with (6R,7R,8S)-8-ethyl-4-azaspiro[2.5]octane-6,7-diol and 20 μL of various concentrations of test compound in 10% DMSO in the same buffer. The final concentrations in the reaction were 0.083 mg/mL GBA2-cellular homogenate, 250 μM 4-methylumbelliferone-β-D glucopyranoside, and various concentrations of inhibitor. The inhibitor and GBA2-cellular homogenate were preincubated together for 5 min at 37° C. The reaction was initiated by addition of substrate and allowed to proceed for 20 min at 37° C. to assess GBA2 activity. Reactions were stopped by the addition of an equal volume (60 μL) of 0.5 M NaOH, 0.3 M glycine, pH 10.5. Fluorescence was measured on a Biotek Synergy H4 plate reader at wavelengths of 365 nm for excitation and 450 nm for emission. Incubations without added enzyme or added inhibitors were used to define no enzyme activity and maximal enzyme activity, respectively. IC50 values were determined by fitting the data to a log[inhibitor concentration] versus response curve using GraphPad Prism. IC50 values were calculated as the concentration of inhibitor required to inhibit GBA2 activity by 50%.

| Compound | IC50 |
| --- | --- |
| C[C@@H]1[C@@H](O)[C@H](O)[C@@H](O)CN1CC1CCCCC1 [Example 1, (2R,3R,4R,5S)-1-(cyclohexylmethyl)-2-methylpiperidine-3,4,5-triol] | 100 to 1000 nM |
| C[C@@H]1[C@@H](O)[C@H](O)[C@@H](O)CN1CC1CCC(C)(C)CC1 [Example 2, (2R,3R,4R,5S)-1-((4,4-dimethylcyclohexyl)methyl)-2-methylpiperidine-3,4,5-triol] | 100 to 1000 nM |
| C[C@@H]1[C@@H](O)[C@H](O)[C@@H](O)CN1CC1CCC(F)(F)CC1 [Example 3, (2R,3R,4R,5S)-1-((4,4-difluorocyclohexyl)methyl)-2-methylpiperidine-3,4,5-triol] | 1000 to 25000 nM |
| C[C@@H]1[C@@H](O)[C@H](O)[C@@H](O)CN1C[C@H]1CCC[C@@H](C(F)(F)F)C1 [Example 16, (2R,3R,4R,5S)-2-methyl-1-(((cis)-3-(trifluoromethyl)cyclohexyl)methyl)piperidine-3,4,5-triol] | 100 to 1000 nM |
| CO[C@H]1CC[C@@H](CN2C[C@H](O)[C@@H](O)[C@H](O)[C@H]2C)CC1 [Example 17, (2R,3R,4R,5S)-1-(((1s,4S)-4-methoxycyclohexyl)methyl)-2-methylpiperidine-3,4,5-triol] | 1000 to 25000 nM |
| CO[C@H]1CC[C@H](CN2C[C@H](O)[C@@H](O)[C@H](O)[C@H]2C)CC1 [Example 18, (2R,3R,4R,5S)-1-(((1r,4R)-4-methoxycyclohexyl)methyl)-2-methylpiperidine-3,4,5-triol] | 1000 to 25000 nM |
| COCC1CCC(CN2C[C@H](O)[C@@H](O)[C@H](O)[C@H]2C)CC1 (stereo partly drawn) [Example 19, (2R,3R,4R,5S)-1-((4-(methoxymethyl)cyclohexyl)methyl)-2-methylpiperidine-3,4,5-triol] | 100 to 1000 nM |
| C[C@@H]1[C@@H](O)[C@H](O)[C@@H](O)CN1CC1CCC2(CC1)CC2 [Example 23, (2R,3R,4R,5S)-2-methyl-1-(spiro[2.5]octan-6-ylmethyl)piperidine-3,4,5-triol] | 100 to 1000 nM |
| C[C@@H]1[C@@H](O)[C@H](O)[C@@H](O)CN1C[C@H]1CC[C@]2(CC1)COC(C)(C)C2 [Example 26, (2R,3R,4R,5S)-1-(((5S,8s)-3,3-dimethyl-2-oxaspiro[4.5]decan-8-yl)methyl)-2-methylpiperidine-3,4,5-triol] | 100 to 1000 nM |
| C[C@@H]1[C@@H](O)[C@H](O)[C@@H](O)CN1CC1Cc2ccccc2C1 [Example 28, (2R,3R,4R,5S)-1-((2,3-dihydro-1H-inden-2-yl)methyl)-2-methylpiperidine-3,4,5-triol] | < 100 nM |
| C[C@@H]1[C@@H](O)[C@H](O)[C@@H](O)CN1CCC1CCCCC1 [Example 29, (2R,3R,4R,5S)-1-(2-cyclohexylethyl)-2-methylpiperidine-3,4,5-triol] | 100 to 1000 nM |
| C[C@@H]1[C@@H](O)[C@H](O)[C@@H](O)CN1CCC1CCC(F)(F)CC1 [Example 30, (2R,3R,4R,5S)-1-(2-(4,4-difluorocyclohexyl)ethyl)-2-methylpiperidine-3,4,5-triol] | 100 to 1000 nM |
| C[C@@H]1[C@@H](O)[C@H](O)[C@@H](O)CN1CC[C@H]1CC[C@@H](C(F)(F)F)CC1 [Example 31, (2R,3R,4R,5S)-2-methyl-1-(2-((1s,4S)-4-(trifluoromethyl)cyclohexyl)ethyl)piperidine-3,4,5-triol] | < 100 nM |
| C[C@@H]1[C@@H](O)[C@H](O)[C@@H](O)CN1CC[C@H]1CC[C@H](C(F)(F)F)CC1 [Example 32, (2R,3R,4R,5S)-2-methyl-1-(2-((1r,4R)-4-(trifluoromethyl)cyclohexyl)ethyl)piperidine-3,4,5-triol] | < 100 nM |
| C[C@@H]1[C@@H](O)[C@H](O)[C@@H](O)CN1CCC12CC3CC(CC(C3)C1)C2 [Example 33, (2R,3R,4R,5S)-1-((2-adamantan-1-yl)ethyl)-2-methylpiperidine-3,4,5-triol] | < 100 nM |

Other lines, results leading:

| IC50 | Compound |
| --- | --- |
| < 100 nM | C[C@@H]1[C@@H](O)[C@H](O)[C@@H](O)CN1CC1CCC(Cl)(Cl)CC1 [Example 4, (2R,3R,4R,5S)-1-((4,4-dichlorocyclohexyl)methyl)-2-methylpiperidine-3,4,5-triol] |
| < 100 nM | CCC1CCC(CN2C[C@H](O)[C@@H](O)[C@H](O)[C@H]2C)CC1 (stereo partly drawn) [Example 5, (2R,3R,4R,5S)-1-((4-ethylcyclohexyl)methyl)-2-methylpiperidine-3,4,5-triol] |
| < 100 nM | C=C[C@H]1CC[C@@H](CN2C[C@H](O)[C@@H](O)[C@H](O)[C@H]2C)CC1 [Example 6, (2R,3R,4R,5S)-2-methyl-1-(((1s,4S)-4-vinylcyclohexyl)methyl)piperidine-3,4,5-triol] |
| < 100 nM | CC(C)[C@H]1CC[C@H](CN2C[C@H](O)[C@@H](O)[C@H](O)[C@H]2C)CC1 [Example 8, (2R,3R,4R,5S)-1-(((1r,4R)-4-isopropylcyclohexyl)methyl)-2-methylpiperidine-3,4,5-triol] |
| < 100 nM | C[C@@H]1[C@@H](O)[C@H](O)[C@@H](O)CN1C[C@H]1CC[C@H](C(C)(C)C)CC1 [Example 10, (2R,3R,4R,5S)-1-(((1r,4R)-4-(tert-butyl)cyclohexyl)methyl)-2-methylpiperidine-3,4,5-triol] |
| < 100 nM | C[C@@H]1[C@@H](O)[C@H](O)[C@@H](O)CN1C[C@H]1CC[C@H](C(C)(C)F)CC1 [Example 14, (2R,3R,4R,5S)-1-(((1r,4R)-4-(2-fluoropropan-2-yl)cyclohexyl)methyl)-2-methylpiperidine-3,4,5-triol] |
| < 100 nM | C[C@@H]1[C@@H](O)[C@H](O)[C@@H](O)CN1C[C@H]1CCC[C@H](C(F)(F)F)C1 [Example 15, (2R,3R,4R,5S)-2-methyl-1-(((trans)-3-(trifluoromethyl)cyclohexyl)methyl)piperidine-3,4,5-triol] |
| < 100 nM | C[C@@H]1[C@@H](O)[C@H](O)[C@@H](O)CN1C[C@H]1CC[C@H](C2CC2)CC1 [Example 21, (2R,3R,4R,5S)-1-(((1r,4R)-4-cyclopropylcyclohexyl)methyl)-2-methylpiperidine-3,4,5-triol] |
| < 100 nM | C[C@@H]1[C@@H](O)[C@H](O)[C@@H](O)CN1CC1CCC(c2ccccc2)CC1 (stereo partly drawn) [Example 22, (2R,3R,4R,5S)-2-methyl-1-((4-phenylcyclohexyl)methyl)piperidine-3,4,5-triol] |
| < 100 nM | C[C@@H]1[C@@H](O)[C@H](O)[C@@H](O)CN1CC1CCC2(CCCC2)CC1 [Example 25, (2R,3R,4R,5S)-2-methyl-1-(spiro[4.5]decan-8-ylmethyl)piperidine-3,4,5-triol] |
| < 100 nM | C[C@@H]1[C@@H](O)[C@H](O)[C@@H](O)CN1CC1CCc2ccccc2C1 (stereo partly drawn) [Example 27, (2R,3R,4R,5S)-2-methyl-1-((1,2,3,4-tetrahydronaphthalen-2-yl)methyl)piperidine-3,4,5-triol] |

Source: US12612380B2, “Non-lysosomal glucosylceramidase inhibitors and uses thereof” (ALECTOS THERAPEUTICS INC., priority 2019, dated 2026)
